Results reported in the NIST ThermoML archive (doi:10.1016/j.jct.2007.01.010).
± gives the expanded uncertainty stated by the source.

Key:
[1] = 101 kPa, Liquid
[2] = xn = mol fraction of the nth substance listed; details: 101 kPa, Liquid

CCOCCOCCOCCO [2-(2-(2-ethoxyethoxy)ethoxy)ethanol]
[1]
Details | viscosity [mPa·s]
293.15 K | 8.087 ± 0.14
298.15 K | 7.049 ± 0.13
303.15 K | 6.421 ± 0.12

CCOCCOCCOCCO [2-(2-(2-ethoxyethoxy)ethoxy)ethanol] + CCOC(C)(C)C
viscosity [mPa·s], [2]
Details | 293.15 K | 298.15 K | 303.15 K
x2 = 0 | 8.087 ± 0.14 | 7.049 ± 0.13 | 6.421 ± 0.12
x2 = 0.0501 | 6.804 ± 0.12 | 5.991 ± 0.11 | 5.485 ± 0.098
x2 = 0.0996 | 5.742 ± 0.098 | 5.091 ± 0.088 | 4.685 ± 0.082
x2 = 0.1502 | 4.816 ± 0.081 | 4.304 ± 0.073 | 3.982 ± 0.067
x2 = 0.1999 | 4.042 ± 0.066 | 3.643 ± 0.06 | 3.389 ± 0.056
x2 = 0.2502 | 3.391 ± 0.054 | 3.076 ± 0.049 | 2.874 ± 0.046
x2 = 0.3005 | 2.841 ± 0.044 | 2.597 ± 0.04 | 2.437 ± 0.038
x2 = 0.3506 | 2.383 ± 0.036 | 2.195 ± 0.033 | 2.067 ± 0.031
x2 = 0.4 | 2.008 ± 0.03 | 1.863 ± 0.028 | 1.759 ± 0.026
x2 = 0.4502 | 1.692 ± 0.024 | 1.582 ± 0.023 | 1.495 ± 0.022
x2 = 0.5 | 1.435 ± 0.02 | 1.351 ± 0.019 | 1.278 ± 0.018
x2 = 0.55 | 1.225 ± 0.017 | 1.16 ± 0.016 | 1.096 ± 0.015
x2 = 0.5955 | 1.067 ± 0.015 | 1.013 ± 0.014 | 0.959 ± 0.013
x2 = 0.6498 | 0.915 ± 0.013 | 0.873 ± 0.012 | 0.824 ± 0.011
x2 = 0.7 | 0.804 ± 0.011 | 0.77 ± 0.011 | 0.727 ± 0.01
x2 = 0.7502 | 0.714 ± 0.01 | 0.689 ± 0.009 | 0.654 ± 0.009
x2 = 0.7982 | 0.647 ± 0.009 | 0.628 ± 0.009 | 0.598 ± 0.008
x2 = 0.8491 | 0.593 ± 0.008 | 0.581 ± 0.008 | 0.555 ± 0.008
x2 = 0.9 | 0.555 ± 0.008 | 0.549 ± 0.008 | 0.524 ± 0.007
x2 = 0.95 | 0.533 ± 0.007 | 0.528 ± 0.007 | 0.502 ± 0.007

CCOC(C)(C)C [2-ethoxy-2-methylpropane]
[1]
Details | viscosity [mPa·s]
293.15 K | 0.532 ± 0.007
298.15 K | 0.504 ± 0.007
303.15 K | 0.478 ± 0.007

CCOC(C)(C)C [2-ethoxy-2-methylpropane] + CCOCCO
viscosity [mPa·s], [2]
Details | 293.15 K | 298.15 K | 303.15 K
x1 = 0.05 | 1.943 ± 0.024 | 1.691 ± 0.021 | 1.515 ± 0.019
x1 = 0.1001 | 1.766 ± 0.022 | 1.547 ± 0.02 | 1.394 ± 0.018
x1 = 0.1489 | 1.619 ± 0.02 | 1.424 ± 0.018 | 1.286 ± 0.016
x1 = 0.2002 | 1.476 ± 0.018 | 1.306 ± 0.017 | 1.184 ± 0.015
x1 = 0.2511 | 1.35 ± 0.017 | 1.203 ± 0.015 | 1.094 ± 0.014
x1 = 0.2999 | 1.242 ± 0.016 | 1.113 ± 0.014 | 1.017 ± 0.013
x1 = 0.3486 | 1.146 ± 0.014 | 1.031 ± 0.013 | 0.947 ± 0.012
x1 = 0.4 | 1.057 ± 0.013 | 0.955 ± 0.012 | 0.879 ± 0.011
x1 = 0.4511 | 0.977 ± 0.012 | 0.887 ± 0.011 | 0.82 ± 0.011
x1 = 0.5 | 0.908 ± 0.012 | 0.829 ± 0.011 | 0.769 ± 0.01
x1 = 0.5502 | 0.845 ± 0.011 | 0.775 ± 0.01 | 0.721 ± 0.01
x1 = 0.5999 | 0.791 ± 0.01 | 0.729 ± 0.01 | 0.679 ± 0.009
x1 = 0.652 | 0.74 ± 0.01 | 0.685 ± 0.009 | 0.64 ± 0.009
x1 = 0.6999 | 0.699 ± 0.009 | 0.649 ± 0.009 | 0.608 ± 0.008
x1 = 0.7499 | 0.66 ± 0.009 | 0.616 ± 0.008 | 0.578 ± 0.008
x1 = 0.8 | 0.626 ± 0.008 | 0.586 ± 0.008 | 0.552 ± 0.008
x1 = 0.8505 | 0.597 ± 0.008 | 0.56 ± 0.008 | 0.528 ± 0.007
x1 = 0.9 | 0.571 ± 0.008 | 0.538 ± 0.007 | 0.508 ± 0.007
x1 = 0.9499 | 0.549 ± 0.008 | 0.519 ± 0.007 | 0.492 ± 0.007
x1 = 1 | 0.532 ± 0.007 | 0.504 ± 0.007 | 0.478 ± 0.007

CCOC(C)(C)C [2-ethoxy-2-methylpropane] + CCOCCOCCO
[2], x1 = 1
Details | viscosity [mPa·s]
293.15 K | 0.532 ± 0.007
298.15 K | 0.504 ± 0.007
303.15 K | 0.478 ± 0.007

CCOC(C)(C)C [2-ethoxy-2-methylpropane] + CCOCCOCCOCCO
[2], x1 = 1
Details | viscosity [mPa·s]
293.15 K | 0.532 ± 0.007
298.15 K | 0.504 ± 0.007
303.15 K | 0.478 ± 0.007

CCOCCO [2-ethoxyethan-1-ol]
[1]
Details | viscosity [mPa·s]
293.15 K | 2.142 ± 0.027
298.15 K | 1.848 ± 0.023
303.15 K | 1.646 ± 0.021

CCOCCO [2-ethoxyethan-1-ol] + CCOC(C)(C)C
[2], x2 = 0
Details | viscosity [mPa·s]
293.15 K | 2.142 ± 0.027
298.15 K | 1.848 ± 0.023
303.15 K | 1.646 ± 0.021

CCOCCOCCO [3,6-dioxa-1-octanol]
[1]
Details | viscosity [mPa·s]
293.15 K | 4.464 ± 0.066
298.15 K | 3.976 ± 0.059
303.15 K | 3.531 ± 0.053

CCOCCOCCO [3,6-dioxa-1-octanol] + CCOC(C)(C)C
viscosity [mPa·s], [2]
Details | 293.15 K | 298.15 K | 303.15 K
x2 = 0 | 4.464 ± 0.066 | 3.976 ± 0.059 | 3.531 ± 0.053
x2 = 0.05 | 3.992 ± 0.058 | 3.574 ± 0.052 | 3.192 ± 0.047
x2 = 0.1 | 3.505 ± 0.05 | 3.156 ± 0.045 | 2.836 ± 0.041
x2 = 0.1501 | 3.037 ± 0.043 | 2.746 ± 0.039 | 2.49 ± 0.035
x2 = 0.2 | 2.637 ± 0.037 | 2.398 ± 0.033 | 2.183 ± 0.031
x2 = 0.2498 | 2.289 ± 0.031 | 2.093 ± 0.029 | 1.912 ± 0.026
x2 = 0.2999 | 1.991 ± 0.027 | 1.828 ± 0.025 | 1.683 ± 0.023
x2 = 0.3497 | 1.744 ± 0.023 | 1.605 ± 0.022 | 1.48 ± 0.02
x2 = 0.3999 | 1.526 ± 0.02 | 1.413 ± 0.019 | 1.312 ± 0.018
x2 = 0.4502 | 1.343 ± 0.018 | 1.245 ± 0.017 | 1.16 ± 0.016
x2 = 0.5002 | 1.184 ± 0.016 | 1.103 ± 0.015 | 1.03 ± 0.014
x2 = 0.55 | 1.049 ± 0.014 | 0.979 ± 0.013 | 0.918 ± 0.012
x2 = 0.5997 | 0.932 ± 0.012 | 0.872 ± 0.012 | 0.82 ± 0.011
x2 = 0.6504 | 0.832 ± 0.011 | 0.78 ± 0.01 | 0.736 ± 0.01
x2 = 0.7003 | 0.749 ± 0.01 | 0.704 ± 0.009 | 0.667 ± 0.009
x2 = 0.7503 | 0.682 ± 0.009 | 0.643 ± 0.009 | 0.611 ± 0.008
x2 = 0.7998 | 0.63 ± 0.009 | 0.596 ± 0.008 | 0.568 ± 0.008
x2 = 0.8498 | 0.591 ± 0.008 | 0.562 ± 0.008 | 0.536 ± 0.007
x2 = 0.9 | 0.563 ± 0.008 | 0.536 ± 0.007 | 0.512 ± 0.007
x2 = 0.95 | 0.545 ± 0.007 | 0.519 ± 0.007 | 0.495 ± 0.007
